Patent publication US6737383B1, “Herbicidal oxadiazolidines” (priority 1999, dated 2004)

Legend:
Italian ryegrass = test: Test E Italian ryegrass; format: in vivo, Lolium multiflorum; conditions: Preemergence
surinam grass [1] = test: Test D surinam grass; format: in vivo, Brachiaria decumbens; conditions: Preemergence, 0 to 100 scale
In short: (§1)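 Herbicide screen in the greenhouse. A non-phytotoxic solvent mixture with surfactant carried the test chemical; in pre-emergence tests it went onto the soil of pots seeded no more than a day earlier. Injury was scored by eye 14 to 21 days after application, 0 to 100.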

blackgrass [2] = test: Test B pre/postemergence blackgrass; format: in vivo, Alopecurus myosuroides
In short: (§2)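 Response is a visual 0-to-10 score relative to untreated plants, where 0 means no effect and 10 means complete control, taken twelve to sixteen days after application. Treatments went onto soil at planting and onto foliage of 1- to 4-leaf plants, using a surfactant-containing non-phytotoxic solvent.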

dallisgrass = test: Test D dallisgrass; format: in vivo, Paspalum dilatatum; conditions: Preemergence, 0 to 100 scale
In short: as §1

bedstraw = test: Test B pre/postemergence bedstraw; format: in vivo, Galium aparine
In short: as §2

winter wheat [3] = test: Test E winter wheat; format: in vivo, Triticum aestivum; conditions: Postemergence; for Plant response rating, Wheat (winter): 0 to 100 scale
In short: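 Visual evaluation versus untreated controls after about 21 to 28 days in the greenhouse. Compound was in a surfactant-containing non-phytotoxic solvent; postemergence plants were treated at the 1- to 4-leaf stage, grown in a 60:40 sandy loam and potting mix blend.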

bamyardgrass = test: Test B flood test barnyardgrass; format: in vivo, Echinochloa crus-galli
In short: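 Flood test on plants grown to the 2-leaf stage; treated plants kept in greenhouse twelve to sixteen days, then visually rated against controls on a 0 (no effect) to 10 (complete control) scale.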

green foxtail [4] = test: Test E green foxtail; format: in vivo, Setaria viridis; conditions: Preemergence
winter barley = test: Test E winter barley; format: in vivo, Hordeum vulgare; conditions: Preemergence
goosegrass = test: Test D goosegrass; format: in vivo, Eleusine indica; conditions: Preemergence, 0 to 100 scale
In short: as §1

common ragweed = test: Test D common ragweed; format: in vivo, Ambrosia elatior; conditions: Preemergence, 0 to 100 scale
In short: as §1

large crabgrass = test: Test D large crabgrass; format: in vivo, Digitaria sanguinalis; conditions: Preemergence, 0 to 100 scale
In short: as §1

surinam grass [5] = test: Test B pre/postemergence surinam grass; format: in vivo, Brachiaria decumbens
In short: as §2

wild oat = test: Test E wild oat; format: in vivo, Avena fatua; conditions: Preemergence
Green foxtail [6] = test: Test D green foxtail; format: in vivo; conditions: Preemergence, 0 to 100 scale
In short: as §1

blackgrass [7] = test: Test E blackgrass; format: in vivo, Alopecurus myosuroides; conditions: Preemergence
winter wheat [8] = test: Test E winter wheat; format: in vivo, Triticum aestivum; conditions: Preemergence
[9] = Rate 31 g/ha, 0 to 100 scale, 0 no effect, 100 complete control
[10] = Rate 62 g/ha, 0 to 100 scale, 0 no effect, 100 complete control
[11] = Rate 125 g/ha, 0 to 100 scale (0 no effect, 100 complete control)
[12] = Rate 500 g/ha, 0 to 100 scale where 0 is no effect and 100 is complete control
[13] = Rate 16 g/ha, 0 no injury, 100 complete control
[14] = Rate 32 g/ha, 0 no injury, 100 complete control
[15] = Rate 64 g/ha, 0 no injury, 100 complete control
[16] = Rate 125 g/ha, 0 no injury, 100 complete control
[17] = Postemergence, Rate 125 g/ha, scale of 0 to 10 where 0 is no effect and 10 is complete control
[18] = Preemergence, Rate 31 g/ha, visual rating, scale 0 to 10 (0 no effect, 10 complete control)
[19] = Preemergence, Rate 62 g/ha, scale 0 to 10 (0 no effect, 10 complete control)
[20] = Preemergence, Rate 125 g/ha, 0 is no effect, 10 is complete control
[21] = Preemergence, Rate 250 g/ha, scale 0 to 10, 0 is no effect, 10 is complete control
[22] = Preemergence, Rate 500 g/ha, scale 0 to 10 (0 no effect, 10 complete control)
[23] = Rate 31 g/ha, Postemergence, scale 0 to 10
[24] = Rate 62 g/ha, Postemergence, scale of 0 to 10 where 0 is no effect and 10 is complete control
[25] = Rate 250 g/ha, Postemergence, scale 0 to 10, 0 is no effect, 10 is complete control

C=CCn1c(=O)on(C(=O)N(c2ccc(F)cc2)C(C)C)c1=O [Compound 146]
Plant response rating, I. Ryegrass (Italian ryegrass; [9]): 50
Plant response rating, I. Ryegrass (Italian ryegrass; [10]): 40
Plant response rating, I. Ryegrass (Italian ryegrass; [11]): 50
I. Ryegrass plant response rating (0 to 100 scale) (Italian ryegrass; Rate 250 g/ha): 60
Plant response rating, I. Ryegrass (Italian ryegrass; [12]): 90
Plant response rating Surinam grass (surinam grass [1]; [13]): 40
Plant response rating Surinam grass (surinam grass [1]; [14]): 60
Surinam grass plant response rating (surinam grass [1]; [15]): 60
Surinam grass plant response rating (surinam grass [1]; [16]): 100
Plant response rating Surinam grass (surinam grass [1]; Rate 250 g/ha): 100
Plant response rating Surinam grass (surinam grass [1]; Rate 500 g/ha): 100
Blackgrass plant response rating (blackgrass [2]; [17]): 8
Blackgrass plant response rating (blackgrass [2]; [18]): 7
Blackgrass plant response rating (blackgrass [2]; [19]): 8
Blackgrass plant response rating (0 to 10 scale) (blackgrass [2]; [20]): 10
Blackgrass plant response rating (blackgrass [2]; [21]): 10
Blackgrass plant response rating (blackgrass [2]; [22]): 10
Blackgrass plant response rating (blackgrass [2]; [23]): 4
Blackgrass plant response rating (blackgrass [2]; [24]): 8
Plant response rating, Blackgrass (blackgrass [2]; [25]): 8
Blackgrass plant response rating (blackgrass [2]; Rate 500 g/ha, Postemergence, scale 0 to 10): 8
Plant response rating, Dallisgrass (dallisgrass; [13]): 80
Plant response rating, Dallisgrass (dallisgrass; [14]): 90
Plant response rating, Dallisgrass (dallisgrass; [15]): 98
Plant response rating, Dallisgrass (dallisgrass; [16]): 100
Plant response rating, Dallisgrass (dallisgrass; Rate 250 g/ha): 100
Plant response rating, Dallisgrass (dallisgrass; Rate 500 g/ha): 100
Bedstraw plant response rating (bedstraw; [17]): 6
Bedstraw plant response rating (bedstraw; [18]): 0
Bedstraw plant response rating (bedstraw; [19]): 9
Bedstraw plant response rating (0 to 10 scale) (bedstraw; [20]): 9
Bedstraw plant response rating (bedstraw; [21]): 10
Bedstraw plant response rating (bedstraw; [22]): 7
Bedstraw plant response rating (bedstraw; [23]): 0
Bedstraw plant response rating (bedstraw; [24]): 2
Plant response rating, Bedstraw (bedstraw; [25]): 7
Bedstraw plant response rating (bedstraw; Rate 500 g/ha, Postemergence, scale 0 to 10, 0 no effect, 10 complete control): 8
Plant response rating, Wheat (winter) (winter wheat [3]; Rate 31 g/ha, 0 no effect, 100 complete control): 30
Plant response rating, Wheat (winter) (winter wheat [3]; Rate 62 g/ha): 20
Plant response rating, Wheat (winter) (winter wheat [3]; Rate 125 g/ha): 40
Plant response rating, Wheat (winter) (winter wheat [3]; Rate 500 g/ha, 0 no effect, 100 complete control): 20
Wheat (winter) plant response rating (winter wheat [3]; Rate 250 g/ha, 0 to 100 scale where 0 is no effect and 100 is complete control): 60
Barnyardgrass plant response rating (bamyardgrass; Postemergence (flood test species), Rate 125 g/ha, scale of 0 to 10 where 0 is no effect and 10 is complete control): 0
Barnyardgrass plant response rating (bamyardgrass; Rate 31 g/ha, Postemergence section (flood test species), scale 0 to 10): 0
Barnyardgrass plant response rating (bamyardgrass; Rate 62 g/ha, Postemergence section, flood test species, scale of 0 to 10 where 0 is no effect and 10 is complete control): 0
Barnyardgrass plant response rating (bamyardgrass; Rate 62 g/ha, headed Pre-emergence (flood test species), scale 0 to 10 (0 no effect, 10 complete control)): 0
Barnyardgrass plant response rating (bamyardgrass; Rate 125 g/ha, Pre-emergence, flood test species, scale 0 to 10 where 0 is no effect and 10 is complete control): 0
Plant response rating, Barnyardgrass (bamyardgrass; Rate 250 g/ha, Postemergence (flood test), scale 0 to 10, 0 is no effect, 10 is complete control): 1
Barnyardgrass plant response rating (bamyardgrass; Rate 250 g/ha, Pre-emergence, flood-test species, scale 0 to 10, 0 is no effect, 10 is complete control): 1
Plant response rating, Barnyardgrass (bamyardgrass; Rate 500 g/ha, headed Pre-emergence (flood test species), scale 0 to 10 (0 no effect, 10 complete control)): 5
Barnyardgrass plant response rating (bamyardgrass; Rate 500 g/ha, listed under Postemergence (flood test species), scale 0 to 10, 0 no effect, 10 complete control): 9
Plant response rating, Green foxtail (green foxtail [4]; [9]): 50
Plant response rating, Green foxtail (green foxtail [4]; [10]): 55
Plant response rating, Green foxtail (green foxtail [4]; [11]): 50
Green foxtail plant response rating (0 to 100 scale) (green foxtail [4]; Rate 250 g/ha): 65
Plant response rating, Green foxtail (green foxtail [4]; [12]): 100
Plant response rating, Barley (winter) (winter barley; [9]): 20
Plant response rating, Barley (winter) (winter barley; [10]): 10
Plant response rating, Barley (winter) (winter barley; [11]): 10
Barley (winter) plant response rating (0 to 100 scale) (winter barley; Rate 250 g/ha): 10
Plant response rating, Barley (winter) (winter barley; [12]): 95
Plant response rating, Goosegrass (goosegrass; [13]): 90
Plant response rating, Goosegrass (goosegrass; [14]): 98
Plant response rating, Goosegrass (goosegrass; [15]): 100
Plant response rating, Goosegrass (goosegrass; [16]): 100
Plant response rating, Goosegrass (goosegrass; Rate 250 g/ha): 100
Plant response rating, Goosegrass (goosegrass; Rate 500 g/ha): 100
Plant response rating, C. ragweed (common ragweed; [13]): 0
Plant response rating, C. ragweed (common ragweed; [14]): 0
Plant response rating, C. ragweed (common ragweed; [15]): 0
Plant response rating, C. ragweed (common ragweed; [16]): 0
Plant response rating, C. ragweed (common ragweed; Rate 250 g/ha): 60
Plant response rating, C. ragweed (common ragweed; Rate 500 g/ha): 75
Plant response rating Large crabgrass (large crabgrass; [13]): 90
Plant response rating Large crabgrass (large crabgrass; [14]): 100
Plant response rating Large crabgrass (large crabgrass; [15]): 100
Plant response rating Large crabgrass (large crabgrass; [16]): 100
Plant response rating Large crabgrass (large crabgrass; Rate 250 g/ha): 100
Plant response rating Large crabgrass (large crabgrass; Rate 500 g/ha): 100
B. signalgrass plant response rating (surinam grass [5]; [17]): 8
B. signalgrass plant response rating (surinam grass [5]; [18]): 7
B. signalgrass plant response rating (surinam grass [5]; [19]): 9
B. signalgrass plant response rating (0 to 10 scale) (surinam grass [5]; [20]): 9
B. signalgrass plant response rating (surinam grass [5]; [21]): 10
B. signalgrass plant response rating (surinam grass [5]; [22]): 10
B. signalgrass plant response rating (surinam grass [5]; [23]): 0
B. signalgrass plant response rating (surinam grass [5]; [24]): 4
Plant response rating, B. signalgrass (surinam grass [5]; [25]): 8
B. signalgrass plant response rating (surinam grass [5]; Rate 500 g/ha, Postemergence, scale of 0 to 10 where 0 is no effect and 10 is complete control): 9
Plant response rating, Wild oat (wild oat; [9]): 40
Plant response rating, Wild oat (wild oat; [10]): 25
Plant response rating, Wild oat (wild oat; [11]): 30
Wild oat plant response rating (0 to 100 scale) (wild oat; Rate 250 g/ha): 50
Plant response rating, Wild oat (wild oat; [12]): 85
Green foxtail plant response rating (Green foxtail [6]; [15]): 100
Plant response rating, Green foxtail (Green foxtail [6]; [15]): 100
Green foxtail plant response rating (Green foxtail [6]; [16]): 100
Plant response rating, Green foxtail (Green foxtail [6]; [16]): 100
Plant response rating, Green foxtail (Green foxtail [6]; Rate 250 g/ha): 100
Plant response rating, Green foxtail (Green foxtail [6]; Rate 500 g/ha): 100
Plant response rating, Blackgrass (blackgrass [7]; [9]): 20
Plant response rating, Blackgrass (blackgrass [7]; [10]): 70
Plant response rating, Blackgrass (blackgrass [7]; [11]): 85
Blackgrass plant response rating (0 to 100 scale) (blackgrass [7]; Rate 250 g/ha): 90
Plant response rating, Blackgrass (blackgrass [7]; [12]): 70
Plant response rating, Wheat (winter) (winter wheat [8]; [9]): 20
Plant response rating, Wheat (winter) (winter wheat [8]; [10]): 0
Plant response rating, Wheat (winter) (winter wheat [8]; [11]): 10
Wheat (winter) plant response rating (0 to 100 scale) (winter wheat [8]; Rate 250 g/ha): 0
Plant response rating, Wheat (winter) (winter wheat [8]; [12]): 100
